# Measurements: PubChem BioAssay (NCI)
# Several values for one entry are separate records, joined by “and”; a condition that tells them apart may be missing. Identical values can stand only once.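 48-hour exposure; five concentrations; linearly interpolated endpoints. The concentration for 50% growth inhibition is given as GI50. The concentration for full growth arrest is given as TGI.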
# How the values were obtained:
# Assay in all cases: growth of human tumour cells (NCI), 48 h
# HCC-2998 colon = test system: HCC-2998 colon
# SK-MEL-5 melanoma = test system: SK-MEL-5 melanoma
# OVCAR-8 ovarian = test system: OVCAR-8 ovarian
# HCT-116 colon = test system: HCT-116 colon
# MOLT-4 leukemia = test system: MOLT-4 leukemia
# A549 NSCLC = test system: A549 NSCLC
# SF-539 CNS = test system: SF-539 CNS
# COLO 205 colon = test system: COLO 205 colon
# LOX IMVI melanoma = test system: LOX IMVI melanoma
# HCT-15 colon = test system: HCT-15 colon
Structure (SMILES),TGI (HCC-2998 colon),TGI (SK-MEL-5 melanoma),TGI (OVCAR-8 ovarian),TGI (HCT-116 colon),TGI (MOLT-4 leukemia),TGI (A549 NSCLC),TGI (SF-539 CNS),TGI (COLO 205 colon),TGI (LOX IMVI melanoma),TGI (HCT-15 colon),GI50 (HCC-2998 colon),GI50 (SK-MEL-5 melanoma),GI50 (OVCAR-8 ovarian),GI50 (HCT-116 colon),GI50 (MOLT-4 leukemia),GI50 (A549 NSCLC),GI50 (SF-539 CNS),GI50 (COLO 205 colon),GI50 (LOX IMVI melanoma),GI50 (HCT-15 colon)
O=C(O)c1ccccc1[Se][Se]c1ccccc1C(=O)O,> 100 µM,> 100 µM,> 100 µM,> 100 µM,> 100 µM,> 100 µM,> 100 µM,> 100 µM,76.1 µM,> 100 µM,,,,,,,,,,
O=C1C2C(C(=O)N1OS(=O)(=O)c1ccccc1)N(Cc1ccccc1)C(=O)N2Cc1ccccc1 (centres undefined),> 100 µM,> 100 µM,,> 100 µM,> 100 µM,> 100 µM,> 100 µM,> 100 µM,> 100 µM,> 100 µM,,,,,,,,,,
CSc1nc2c(c(=O)[nH]1)N=C1c3ccccc3C(=O)C1C(c1ccccc1)N2 (centres undefined),> 100 µM,67.2 µM,> 100 µM,> 100 µM,> 100 µM,> 100 µM,17.9 µM,> 100 µM,> 100 µM,> 100 µM,6.75 µM,1.5 µM,19.1 µM,4.21 µM,5.24 µM,6.98 µM,2.84 µM,3.53 µM,5.65 µM,2.8 µM
Cc1cc(I)cc(CN(C)CCCCN2CCCCC2)c1O,30.1 µM,10.7 µM,> 100 µM,21.1 µM,21.8 µM,96.8 µM,25.1 µM,24.9 µM,24 µM,25.8 µM,16 µM,3.33 µM,36.5 µM,8.78 µM,7.08 µM,27.4 µM,12 µM,9.87 µM,11.5 µM,6.08 µM
CC/C=C\CCC/C=C1/C(=O)C=C[C@@H]1C/C=C\CCCC(=O)OC,4.02 µM,3.5 µM,12.8 µM,4.95 µM,8.39 µM,28.4 µM,12.9 µM,12.5 µM,3.28 µM,5.13 µM,2.3 µM,1.88 µM,3.71 µM,2.44 µM,2.43 µM,11.1 µM,3.49 µM,4.1 µM,1.59 µM,2.1 µM
Cc1ccc(NC2=C(Cl)C(=O)N(Cc3ccccc3)C2=O)cc1O,,37.5 µM,> 100 µM,> 100 µM,> 100 µM,> 100 µM,76 µM,> 100 µM,63.4 µM,> 100 µM,,15.5 µM,26.1 µM,37.7 µM,24.3 µM,42.1 µM,25 µM,49 µM,18 µM,33.5 µM
O=C(Nc1ccc(Cl)c(Cl)c1)Nc1ccc(Cl)c(Cl)c1,13.4 µM and 11.5 µM,3.35 µM and 3.18 µM,14.1 µM and 9.83 µM,11 µM and 7.41 µM,10.2 µM and 6.6 µM,15.6 µM and 10.6 µM,8.15 µM and 14.7 µM,3.3 µM and 3.69 µM,4.94 µM and 10.3 µM,11.9 µM and 11.2 µM,3.71 µM and 3.01 µM,1.74 µM and 1.77 µM,3.12 µM and 2.54 µM,2.85 µM and 2.1 µM,2.64 µM and 2.31 µM,2.98 µM and 2.29 µM,2.63 µM and 3.64 µM,1.77 µM and 2.07 µM,2.26 µM and 2.95 µM,2.9 µM and 3.01 µM
CCCCCN(CCCCC)CC(O)c1cc(C)c2ccc3cc(C(C)C)ccc3c2c1 (centres undefined),3.4 µM,3.62 µM,6.46 µM,3.32 µM,4.72 µM,5.58 µM,3.36 µM,4.22 µM,3.28 µM,3.43 µM,1.85 µM,1.83 µM,2.55 µM,1.73 µM,2.21 µM,2.61 µM,1.79 µM,2.08 µM,1.76 µM,1.81 µM
CC1=C(C(=O)Nc2ccc(Cl)c(Cl)c2)C(c2cccc(Oc3ccccc3)c2)NC(=S)N1 (centres undefined),,15 µM,16.8 µM,> 50 µM,> 50 µM,23.7 µM,13 µM,21.1 µM,14.7 µM,17.4 µM,,7.89 µM,7.8 µM,20.6 µM,> 50 µM,9.51 µM,6.6 µM,9.38 µM,7.48 µM,8.93 µM
CNS(=O)(=O)NNS(=O)(=O)c1ccc2ccccc2c1,> 100 µM,> 100 µM,> 100 µM,> 100 µM,> 100 µM,> 100 µM,> 100 µM,> 100 µM,> 100 µM,> 100 µM,,,,,,,,,,
CO[C@H](C(=O)[C@@H](O)[C@@H](C)O)[C@@H]1Cc2cc3cc(O[C@H]4C[C@@H](O[C@H]5C[C@@H](O)[C@H](O)C(C)O5)[C@H](O)C(C)O4)c(C)c(O)c3c(O)c2C(=O)[C@H]1O[C@H]1C[C@@H](O[C@H]2C[C@@H](O[C@H]3C[C@](C)(O)C(=O)C(C)O3)[C@@H](O)C(C)O2)[C@H](O)C(C)O1 (some centres undefined),1.72 µM,0.136 µM,> 33.2 µM,> 15.7 µM,> 19.1 µM,> 33.2 µM,0.224 µM,0.459 µM,,> 33.2 µM,0.222 µM,0.0385 µM,0.0991 µM,0.0444 µM,0.193 µM,0.106 µM,0.0473 µM,0.053 µM,,0.889 µM
CCOC(=O)CN1C(=O)c2cccc3cc([N+](=O)[O-])cc(c23)C1=O,14.8 µM,25.5 µM,3.43 µM,3 µM,2.45 µM,26.6 µM,16 µM,,2.74 µM,3.47 µM,,,,,,,,,,
Cc1ccc(N=Nc2ccc(N(CCC#N)CCC#N)cc2C)c(Br)c1,59.4 µM,56.5 µM,> 100 µM,,45.1 µM,> 100 µM,> 100 µM,> 100 µM,,> 100 µM,,,,,,,,,,
O=C(COc1ccc(Br)cc1Br)N1N=C(c2ccc([N+](=O)[O-])o2)CC1(O)c1ccccc1 (centres undefined),23.1 µM,16.1 µM,36.7 µM,33.2 µM,8.98 µM,72.2 µM,,7.05 µM,18.4 µM,18.7 µM,,,,,,,,,,
